Results reported in patent publication US20170334899A1, “AMINO-SUBSTITUTED ISOTHIAZOLES” (Bayer Pharma Aktiengesellschaft, priority 2014, published 2017).
pIC50: −log10 of the molar value. “And” between values parts separate entries of the source, which are not always exact repeats. Identical values can stand only once. Each block holds one molecule with its values, some of them ahead of it.

What was measured:
[1] = target: T1, catalytic domain of human Bub1 (amino acids 704-1085) (Homo sapiens, UniProt O43683); test: Bub1 kinase assay (TR-FRET); assay type: biochemical; conditions: 10 μM ATP, avg, read-out: Bub1 avg (IC50 [mol/l])
T1 construct: catalytic domain of human Bub1 (amino acids 704-1085); His6 (N); made in house; host or cells: insect cells (Hi5)
T1 sequence (O43683 704-1085): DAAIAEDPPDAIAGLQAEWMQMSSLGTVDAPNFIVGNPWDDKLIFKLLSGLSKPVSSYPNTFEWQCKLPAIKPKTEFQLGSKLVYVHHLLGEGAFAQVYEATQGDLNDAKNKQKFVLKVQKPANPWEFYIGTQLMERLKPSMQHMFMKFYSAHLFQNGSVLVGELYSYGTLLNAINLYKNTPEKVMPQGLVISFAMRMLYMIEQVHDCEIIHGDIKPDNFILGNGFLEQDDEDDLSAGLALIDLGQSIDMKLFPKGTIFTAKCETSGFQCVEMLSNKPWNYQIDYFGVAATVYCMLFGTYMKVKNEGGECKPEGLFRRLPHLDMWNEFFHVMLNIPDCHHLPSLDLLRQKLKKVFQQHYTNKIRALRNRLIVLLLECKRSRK
In short: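 Readout is the 665/620 nm TR-FRET ratio from anti-phosphoserine antibody, Eu-labelled anti-mouse IgG and streptavidin-XL665, scaled between no-enzyme and uninhibited controls. Reaction: 1 μM biotinylated peptide, 10 μM ATP, 60 min, 22 °C, after 15 min compound preincubation with His6-Bub1 (704-1085, insect-expressed, ~200 ng/ml).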

[2] = tested on: human cervical tumor cell line HeLa (ATCC CCL-2); test: SAC-Formation - Nocodazole-Induced Assay; assay type: cell-based; conditions: Homo sapiens, HeLa, 24 h, HeLa cells, nocodazole 0.1 μg/ml together with test compound, decrease of mitotic cells (phospho-histone H3 Ser10)
In short: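 Loss of phospho-histone H3 Ser10-positive cells, counted against Hoechst-stained nuclei by high-content imaging, marked mitotic breakthrough. Compounds (0.005–20 μM, 0.5% DMSO) were co-dosed with 0.1 μg/ml nocodazole onto HeLa cells for 24 h at 37 °C. Curves were fitted with a four-parameter Hill equation.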

SMILES: Cc1nsc(Nc2cnc(C(F)(F)F)cn2)c1C(=O)Nc1ccc(OC2CCN(CC(F)F)C2)nc1 (stereo not shown) [Example 296, N-(6-{[1-(2,2-difluoroethyl)pyrrolidin-3-yl]oxy}pyridin-3-yl)-3-methyl-5-{[5-(trifluoromethyl)pyrazin-2-yl]amino}-1,2-thiazole-4-carboxamide]
pIC50 [1]: < 4.70 | pIC50 [2]: 6.74

SMILES: Cc1nsc(Nc2cnc(C(F)(F)F)cn2)c1C(=O)Nc1ccc(F)c(OCC2CCN(C(CF)CF)CC2)c1 [Example 312, N-(3-{[1-(1,3-difluoropropan-2-yl)piperidin-4-yl]methoxy}-4-fluorophenyl)-3-methyl-5-{[5-(trifluoromethyl)pyrazin-2-yl]amino}-1,2-thiazole-4-carboxamide]
pIC50 [1]: ≤ 4.70 | pIC50 [2]: 7.09

SMILES: Cc1nsc(Nc2cnc3ccccc3n2)c1C(=O)Nc1cccc(NS(=O)(=O)C2CCCN(C(=O)OCc3ccccc3)C2)c1 (stereo not shown) [Example 291, benzyl 3-{[3-({[3-methyl-5-(quinoxalin-2-ylamino)-1,2-thiazol-4-yl]carbonyl}amino)phenyl]sulfamoyl} piperidine-1-carboxylate]
pIC50 [1]: < 4.70 | pIC50 [2]: 5.85

SMILES: Cc1nsc(Nc2cnc3ccccc3n2)c1C(=O)Nc1ccc(OC2CCN(CC(F)(F)F)CC2)nc1 [Example 21, 3-Methyl-5-(quinoxalin-2-ylamino)-N-(6-{[1-(2,2,2-trifluoroethyl)piperidin-4-yl]oxy}-pyridin-3-yl)-1,2-thiazole-4-carboxamide]
pIC50 [1]: ≤ 4.70 | pIC50 [2]: 7.21

SMILES: Cc1nsc(Nc2cnc(C(F)(F)F)cn2)c1C(=O)Nc1ccc(F)c(OCC2CCN(CC(F)(F)F)CC2)c1 [Example 310, N-(4-fluoro-3-{[1-(2,2,2-trifluoroethyl)piperidin-4-yl]methoxy}phenyl)-3-methyl-5-{[5-(trifluoromethyl)pyrazin-2-yl]amino}-1,2-thiazole-4-carboxamide]
pIC50 [1]: ≤ 4.70 | pIC50 [2]: 7.23

SMILES: Cc1nsc(Nc2cnc(C(F)(F)F)cn2)c1C(=O)Nc1ccc(F)c(OCC2CCN(CCC(F)(F)F)CC2)c1 [Example 311, N-(4-fluoro-3-{[1-(3,3,3-trifluoropropyl)piperidin-4-yl]methoxy}phenyl)-3-methyl-5-{[5-(trifluoromethyl)pyrazin-2-yl]amino}-1,2-thiazole-4-carboxamide]
pIC50 [1]: < 4.70 | pIC50 [2]: 6.89

SMILES: Cc1nsc(Nc2cnc(C(F)(F)F)cn2)c1C(=O)Nc1ccc(OCCNCC(F)(F)F)nc1 [Example 322, 3-methyl-N-(6-{2-[(2,2,2-trifluoroethyl)amino]ethoxy}pyridin-3-yl)-5-{[5-(trifluoromethyl)pyrazin-2-yl]amino}-1,2-thiazole-4-carboxamide]
pIC50 [1]: ≤ 4.70 | pIC50 [2]: 7.16

SMILES: Cc1nsc(Nc2cnc(C(F)(F)F)cn2)c1C(=O)Nc1ccc(F)c(OC2CCN(CC(F)F)CC2)c1 [Example 265, N-(3-{[1-(2,2-difluoroethyl)piperidin-4-yl]oxy}-4-fluorophenyl)-3-methyl-5-{[5-(trifluoromethyl)pyrazin-2-yl]amino}-1,2-thiazole-4-carboxamide]
pIC50 [1]: < 4.70 | pIC50 [2]: 6.72

SMILES: Cc1nsc(Nc2cnc(C(F)(F)F)cn2)c1C(=O)Nc1ccc(OC2CCN(CCF)C2)nc1 (stereo not shown) [Example 295, N-(6-{[1-(2-fluoroethyl)pyrrolidin-3-yl]oxy}pyridin-3-yl)-3-methyl-5-{[5-(trifluoromethyl)pyrazin-2-yl]amino}-1,2-thiazole-4-carboxamide]
pIC50 [1]: < 4.70 | pIC50 [2]: 6.23

SMILES: Cc1nsc(Nc2cnc(C(F)(F)F)cn2)c1C(=O)Nc1ccc(F)c(OC2CCN(CC(F)(F)F)C2)c1 (stereo not shown) [Example 315, N-(4-fluoro-3-{[1-(2,2,2-trifluoroethyl)pyrrolidin-3-yl]oxy}phenyl)-3-methyl-5-{[5-(trifluoromethyl)pyrazin-2-yl]amino}-1,2-thiazole-4-carboxamide]
pIC50 [1]: ≤ 4.70 | pIC50 [2]: 8.37

SMILES: Cc1nsc(Nc2cnc3ccccc3n2)c1C(=O)Nc1cccc(NS(=O)(=O)C2CCN(CC(F)F)CC2)c1 [Example 282, N-[3-({[1-(2,2-difluoroethyl)piperidin-4-yl]sulfonyl}amino)phenyl]-3-methyl-5-(quinoxalin-2-ylamino)-1,2-thiazole-4-carboxamide]
pIC50 [1]: < 4.70 | pIC50 [2]: 5.17

Now from value to molecule:

pIC50 [1]: ≤ 4.70 | pIC50 [2]: 4.70
SMILES: Cc1nsc(Nc2cc(C#N)ccn2)c1C(=O)Nc1ccc(OC2CCNCC2)nc1 [Example 24, 5-[(4-Cyanopyridin-2-yl)amino]-3-methyl-N-[6-(piperidin-4-yloxy)pyridin-3-yl]-1,2-thiazole-4-carboxamide]

pIC50 [1]: < 4.70 | pIC50 [2]: 6.04
SMILES: Cc1nsc(Nc2cc(C#N)ccn2)c1C(=O)Nc1ccc(OC2CCN(CC(F)F)CC2)nc1 [Example 263, 5-[(4-cyanopyridin-2-yl)amino]-N-(6-{[1-(2,2-difluoroethyl)piperidin-4-yl]oxy}pyridin-3-yl)-3-methyl-1,2-thiazole-4-carboxamide]

pIC50 [1]: < 4.70 | pIC50 [2]: 7.12
SMILES: Cc1nsc(Nc2cnc(C(F)(F)F)cn2)c1C(=O)Nc1cccc(NC(=O)OC(C)(C)C)c1 [Example 284, 3-tert-butyl (3-{[(3-methyl-5-{[5-(trifluoromethyl)pyrazin-2-yl]amino}-1,2-thiazol-4-yl)carbonyl]amino}phenyl)carbamate]

pIC50 [1]: < 4.70 | pIC50 [2]: 5.51
SMILES: Cc1nsc(Nc2cnc(C(F)(F)F)cn2)c1C(=O)Nc1ccc(OCCCNCC(F)F)nc1 [Example 293, N-(6-{3-[(2,2-difluoroethyl)amino]propoxy}pyridin-3-yl)-3-methyl-5-{[5-(trifluoromethyl)pyrazin-2-yl]amino}-1,2-thiazole-4-carboxamide]

pIC50 [1]: < 4.70 | pIC50 [2]: 5.14
SMILES: Cc1nsc(Nc2cnc3ccccc3n2)c1C(=O)Nc1cccc(NS(=O)(=O)C2CN(CCF)C2)c1 [Example 287, N-[3-({[1-(2-fluoroethyl)azetidin-3-yl]sulfonyl}amino)phenyl]-3-methyl-5-(quinoxalin-2-ylamino)-1,2-thiazole-4-carboxamide]

pIC50 [1]: < 4.70 | pIC50 [2]: 5.43
SMILES: Cc1nsc(Nc2ccc(C#N)cn2)c1C(=O)Nc1cccc(C(=O)NC(C)C)c1 [Example 255, 5-[(5-cyanopyridin-2-yl)amino]-N-[3-(isopropylcarbamoyl)phenyl]-3-methyl-1,2-thiazole-4-carboxamide]

pIC50 [1]: < 4.70 | pIC50 [2]: 6.08
SMILES: CCN1CCN(C(=O)c2ccc(NC(=O)c3c(C)nsc3Nc3cncc(C(F)(F)F)n3)cc2)CC1 [Example 275, N-{4-[(4-ethylpiperazin-1-yl)carbonyl]phenyl}-3-methyl-5-{[6-(trifluoromethyl)pyrazin-2-yl]amino}-1,2-thiazole-4-carboxamide]

pIC50 [1]: 6.22 | pIC50 [2]: 5.82
SMILES: CCNC(=O)c1cccc(NC(=O)c2c(C)nsc2Nc2cnc3ccccc3n2)c1 [Example 251, N-[3-(ethylcarbamoyl)phenyl]-3-methyl-5-(quinoxalin-2-ylamino)-1,2-thiazole-4-carboxamide]

pIC50 [1]: < 4.70 | pIC50 [2]: 6.10
SMILES: Cc1nsc(Nc2ccc(C#N)cn2)c1C(=O)Nc1cccc(C(=O)NC2CC2)c1 [Example 250, 5-[(5-cyanopyridin-2-yl)amino]-N-[3-(cyclopropylcarbamoyl)phenyl]-3-methyl-1,2-thiazole-4-carboxamide]

pIC50 [1]: < 4.70 | pIC50 [2]: 7.15
SMILES: Cc1nsc(Nc2cnc(C(F)(F)F)cn2)c1C(=O)Nc1ccc(F)c(OCCCN(C)CC(F)(F)F)c1 [Example 302, N-(4-fluoro-3-{3-[methyl(2,2,2-trifluoroethyl)amino]propoxy}phenyl)-3-methyl-5-{[5-(trifluoromethyl)pyrazin-2-yl]amino}-1,2-thiazole-4-carboxamide]

pIC50 [1]: < 4.70 and 4.72 | pIC50 [2]: 6.92
SMILES: Cc1nsc(Nc2cnc(C(F)(F)F)cn2)c1C(=O)Nc1ccc(OCCCO)nc1 [Example 279, N-[6-(3-hydroxypropoxy)pyridin-3-yl]-3-methyl-5-{[5-(trifluoromethyl)pyrazin-2-yl]amino}-1,2-thiazole-4-carboxamide]

pIC50 [1]: < 4.70 | pIC50 [2]: 5.80
SMILES: COC(=O)CCCc1ccc(NC(=O)c2c(C)nsc2Nc2cc(C#N)ccn2)cc1 [Example 256, methyl 4-{4-[({5-[(4-cyanopyridin-2-yl)amino]-3-methyl-1,2-thiazol-4-yl}carbonyl)amino]phenyl}butanoate]

pIC50 [1]: < 4.70 | pIC50 [2]: 5.96
SMILES: CCN1CCN(C(=O)c2ccc(NC(=O)c3c(C)nsc3Nc3cnc(C(F)(F)F)cn3)cc2)CC1 [Example 261, N-{4-[(4-ethylpiperazin-1-yl)carbonyl]phenyl}-3-methyl-5-{[5-(trifluoromethyl)pyrazin-2-yl]amino}-1,2-thiazole-4-carboxamide]

pIC50 [1]: < 4.70 | pIC50 [2]: 6.68
SMILES: Cc1nsc(Nc2cnc(C(F)(F)F)cn2)c1C(=O)Nc1ccc(N(C)C)c(OCCCN(C)CC(F)(F)F)c1 [Example 299, N-[4-(dimethylamino)-3-{3-[methyl(2,2,2-trifluoroethyl)amino]propoxy}phenyl]-3-methyl-5-{[5-(trifluoromethyl)pyrazin-2-yl]amino}-1,2-thiazole-4-carboxamide]

pIC50 [1]: < 4.70 | pIC50 [2]: 6.35
SMILES: Cc1nsc(Nc2cnc(C(F)(F)F)cn2)c1C(=O)Nc1ccc(OCCCNCCC(F)(F)F)nc1 [Example 294, 3-methyl-5-{[5-(trifluoromethyl)pyrazin-2-yl]amino}-N-(6-{3-[(3,3,3-trifluoropropyl)amino]propoxy}pyridin-3-yl)-1,2-thiazole-4-carboxamide]
